Assay results reported in paper PMC7968037 (RSC Advances, 2021).

System: not listed separately
Assay: in vitro
Settings: human, Cytotoxicity [log(EC50 [μM]) ± SEM], cellular necrosis, MCF-7, 72 h exposure, 0.32–320 μM; values are logarithms

SMILES	EC50 [µM]
C=C(C[C@H](N)C(=O)O)C(=O)NCc1ccccc1 [Compound 4, (S)-2-Amino-4-(benzylcarbamoyl)pent-4-enoic acid]	219
C=C(C[C@H](N)C(=O)O)C(=O)NCc1ccc([N+](=O)[O-])cc1 [Compound 6, (S)-2-Amino-4-((4-nitrobenzyl)carbamoyl)pent-4-enoic acid]	20.4
C=C(C[C@H](N)C(=O)O)C(=O)NCc1ccc(F)cc1 [Compound 5, (S)-2-Amino-4-((4-fluorobenzyl)carbamoyl)pent-4-enoic acid]	55
O=C(c1cc(Cc2n[nH]c(=O)c3ccccc23)ccc1F)N1CCN(C(=O)C2CC2)CC1 [Olaparib, reference compound]	26.3
C=C(C[C@H](N)C(=O)O)C(=O)Nc1ccc(F)cc1 [Compound 9, (S)-2-Amino-4-((4-fluorophenyl)carbamoyl) pent-4-enoic acid]	2.29

System: not listed separately
Assay: in vitro
Settings: human, Cytotoxicity [log(EC50 [μM]) ± SEM], cellular necrosis, SK-BR-3, 72 h exposure, 0.32–320 μM; values are logarithms

SMILES	EC50 [µM]
C=C(C[C@H](N)C(=O)O)C(=O)NCc1ccccc1 [Compound 4, (S)-2-Amino-4-(benzylcarbamoyl)pent-4-enoic acid]	> 316
C=C(C[C@H](N)C(=O)O)C(=O)NCc1ccc([N+](=O)[O-])cc1 [Compound 6, (S)-2-Amino-4-((4-nitrobenzyl)carbamoyl)pent-4-enoic acid]	0.437
C=C(C[C@H](N)C(=O)O)C(=O)NCc1ccc(F)cc1 [Compound 5, (S)-2-Amino-4-((4-fluorobenzyl)carbamoyl)pent-4-enoic acid]	0.389
O=C(c1cc(Cc2n[nH]c(=O)c3ccccc23)ccc1F)N1CCN(C(=O)C2CC2)CC1 [Olaparib, reference compound]	0.0603
C=C(C[C@H](N)C(=O)O)C(=O)Nc1ccc(F)cc1 [Compound 9, (S)-2-Amino-4-((4-fluorophenyl)carbamoyl) pent-4-enoic acid]	0.0603

System: benign MCF-10A breast cells
Assay: cells
Format: cell-based
Settings: 24 h, tested 0.32–320 μM, Fig. 4D

SMILES	Change of cell growth compared to vehicle-treated cells
C=C(C[C@H](N)C(=O)O)C(=O)NCc1ccc([N+](=O)[O-])cc1 [Compound 6, (S)-2-Amino-4-((4-nitrobenzyl)carbamoyl)pent-4-enoic acid]	significant increases
C=C(C[C@H](N)C(=O)O)C(=O)NCc1ccc(F)cc1 [Compound 5, (S)-2-Amino-4-((4-fluorobenzyl)carbamoyl)pent-4-enoic acid]	significant increases

Same assay, conditions: 72 h, tested 0.32–320 μM, Fig. 4D′

SMILES	Change of cell growth compared to vehicle-treated cells
C=C(C[C@H](N)C(=O)O)C(=O)NCc1ccc(F)cc1 [Compound 5, (S)-2-Amino-4-((4-fluorobenzyl)carbamoyl)pent-4-enoic acid]	significant increases

Same assay, conditions: Homo sapiens, 24 h, read-out: Growth inhibition [log(IC50 [μM]) ± SEM] (converted)

SMILES	IC50 [µM]
C=C(C[C@H](N)C(=O)O)C(=O)NCc1ccccc1 [Compound 4, (S)-2-Amino-4-(benzylcarbamoyl)pent-4-enoic acid]	> 316
C=C(C[C@H](N)C(=O)O)C(=O)NCc1ccc([N+](=O)[O-])cc1 [Compound 6, (S)-2-Amino-4-((4-nitrobenzyl)carbamoyl)pent-4-enoic acid]	> 316
C=C(C[C@H](N)C(=O)O)C(=O)NCc1ccc(F)cc1 [Compound 5, (S)-2-Amino-4-((4-fluorobenzyl)carbamoyl)pent-4-enoic acid]	> 316
O=C(c1cc(Cc2n[nH]c(=O)c3ccccc23)ccc1F)N1CCN(C(=O)C2CC2)CC1 [Olaparib, reference compound]	> 316
C=C(C[C@H](N)C(=O)O)C(=O)Nc1ccc(F)cc1 [Compound 9, (S)-2-Amino-4-((4-fluorophenyl)carbamoyl) pent-4-enoic acid]	> 316

Same assay, conditions: Homo sapiens, 72 h, read-out: Growth inhibition [log(IC50 [μM]) ± SEM] (converted)

SMILES	IC50 [µM]
C=C(C[C@H](N)C(=O)O)C(=O)NCc1ccccc1 [Compound 4, (S)-2-Amino-4-(benzylcarbamoyl)pent-4-enoic acid]	> 316
C=C(C[C@H](N)C(=O)O)C(=O)NCc1ccc([N+](=O)[O-])cc1 [Compound 6, (S)-2-Amino-4-((4-nitrobenzyl)carbamoyl)pent-4-enoic acid]	> 316
C=C(C[C@H](N)C(=O)O)C(=O)NCc1ccc(F)cc1 [Compound 5, (S)-2-Amino-4-((4-fluorobenzyl)carbamoyl)pent-4-enoic acid]	> 316
O=C(c1cc(Cc2n[nH]c(=O)c3ccccc23)ccc1F)N1CCN(C(=O)C2CC2)CC1 [Olaparib, reference compound]	> 316
C=C(C[C@H](N)C(=O)O)C(=O)Nc1ccc(F)cc1 [Compound 9, (S)-2-Amino-4-((4-fluorophenyl)carbamoyl) pent-4-enoic acid]	> 316

System: MCF-7 (ER+/PR+/HER2−) breast cancer cells
Assay: cells
Format: cell-based
Settings: Homo sapiens, MCF7, 24 h, read-out: Growth inhibition [log(IC50 [μM]) ± SEM] (converted)

SMILES	IC50 [µM]
C=C(C[C@H](N)C(=O)O)C(=O)NCc1ccccc1 [Compound 4, (S)-2-Amino-4-(benzylcarbamoyl)pent-4-enoic acid]	> 320
C=C(C[C@H](N)C(=O)O)C(=O)NCc1ccc(F)cc1 [Compound 5, (S)-2-Amino-4-((4-fluorobenzyl)carbamoyl)pent-4-enoic acid]	> 320
O=C(c1cc(Cc2n[nH]c(=O)c3ccccc23)ccc1F)N1CCN(C(=O)C2CC2)CC1 [Olaparib, reference compound]	> 316

Second part, the compound after the results:

IC50 [µM]	SMILES
> 320	C=C(C[C@H](N)C(=O)O)C(=O)NCc1ccc([N+](=O)[O-])cc1 [Compound 6, (S)-2-Amino-4-((4-nitrobenzyl)carbamoyl)pent-4-enoic acid]
> 320	C=C(C[C@H](N)C(=O)O)C(=O)Nc1ccc(F)cc1 [Compound 9, (S)-2-Amino-4-((4-fluorophenyl)carbamoyl) pent-4-enoic acid]

Same assay, conditions: Homo sapiens, MCF7, 72 h, read-out: Growth inhibition [log(IC50 [μM]) ± SEM] (converted)

SMILES	IC50 [µM]
C=C(C[C@H](N)C(=O)O)C(=O)NCc1ccccc1 [Compound 4, (S)-2-Amino-4-(benzylcarbamoyl)pent-4-enoic acid]	195
C=C(C[C@H](N)C(=O)O)C(=O)NCc1ccc(F)cc1 [Compound 5, (S)-2-Amino-4-((4-fluorobenzyl)carbamoyl)pent-4-enoic acid]	85.1
O=C(c1cc(Cc2n[nH]c(=O)c3ccccc23)ccc1F)N1CCN(C(=O)C2CC2)CC1 [Olaparib, reference compound]	107

The next lines start with the values.

IC50 [µM]	SMILES
> 320	C=C(C[C@H](N)C(=O)O)C(=O)NCc1ccc([N+](=O)[O-])cc1 [Compound 6, (S)-2-Amino-4-((4-nitrobenzyl)carbamoyl)pent-4-enoic acid]
75.9	C=C(C[C@H](N)C(=O)O)C(=O)Nc1ccc(F)cc1 [Compound 9, (S)-2-Amino-4-((4-fluorophenyl)carbamoyl) pent-4-enoic acid]

System: benign MCF-10A breast cells
Assay: not given
Settings: 24 h, tested 0.32–320 μM, p ≤ 0.05, Fig. 5D

SMILES	Concentrations that exerted significant cytotoxicity compared to vehicle [µM]
C=C(C[C@H](N)C(=O)O)C(=O)NCc1ccc(F)cc1 [Compound 5, (S)-2-Amino-4-((4-fluorobenzyl)carbamoyl)pent-4-enoic acid]	320
O=C(c1cc(Cc2n[nH]c(=O)c3ccccc23)ccc1F)N1CCN(C(=O)C2CC2)CC1 [Olaparib, reference compound]	320

Same assay, conditions: 72 h, tested 0.32–320 μM, p ≤ 0.05, Fig. 5D′

SMILES	Concentrations that exerted significant toxicity compared to vehicle [µM]
C=C(C[C@H](N)C(=O)O)C(=O)NCc1ccc(F)cc1 [Compound 5, (S)-2-Amino-4-((4-fluorobenzyl)carbamoyl)pent-4-enoic acid]	320
O=C(c1cc(Cc2n[nH]c(=O)c3ccccc23)ccc1F)N1CCN(C(=O)C2CC2)CC1 [Olaparib, reference compound]	320

System: not listed separately
Assay: in vitro
Settings: human, Cytotoxicity [log(EC50 [μM]) ± SEM], cellular necrosis, MCF-10A, 72 h exposure, 0.32–320 μM; values are logarithms

SMILES	EC50 [µM]
C=C(C[C@H](N)C(=O)O)C(=O)NCc1ccccc1 [Compound 4, (S)-2-Amino-4-(benzylcarbamoyl)pent-4-enoic acid]	> 316
C=C(C[C@H](N)C(=O)O)C(=O)NCc1ccc([N+](=O)[O-])cc1 [Compound 6, (S)-2-Amino-4-((4-nitrobenzyl)carbamoyl)pent-4-enoic acid]	> 316
C=C(C[C@H](N)C(=O)O)C(=O)NCc1ccc(F)cc1 [Compound 5, (S)-2-Amino-4-((4-fluorobenzyl)carbamoyl)pent-4-enoic acid]	> 316
O=C(c1cc(Cc2n[nH]c(=O)c3ccccc23)ccc1F)N1CCN(C(=O)C2CC2)CC1 [Olaparib, reference compound]	> 316
C=C(C[C@H](N)C(=O)O)C(=O)Nc1ccc(F)cc1 [Compound 9, (S)-2-Amino-4-((4-fluorophenyl)carbamoyl) pent-4-enoic acid]	> 316

System: MDA-MB-231 (triple negative) breast cancer cells
Assay: cells
Format: cell-based
Settings: Homo sapiens, MDA-MB-231, 24 h, read-out: Growth inhibition [log(IC50 [μM]) ± SEM] (converted)

SMILES	IC50 [µM]
C=C(C[C@H](N)C(=O)O)C(=O)NCc1ccccc1 [Compound 4, (S)-2-Amino-4-(benzylcarbamoyl)pent-4-enoic acid]	> 320
C=C(C[C@H](N)C(=O)O)C(=O)NCc1ccc(F)cc1 [Compound 5, (S)-2-Amino-4-((4-fluorobenzyl)carbamoyl)pent-4-enoic acid]	> 320
O=C(c1cc(Cc2n[nH]c(=O)c3ccccc23)ccc1F)N1CCN(C(=O)C2CC2)CC1 [Olaparib, reference compound]	162

Second part, the compound after the results:

IC50 [µM]	SMILES
219	C=C(C[C@H](N)C(=O)O)C(=O)NCc1ccc([N+](=O)[O-])cc1 [Compound 6, (S)-2-Amino-4-((4-nitrobenzyl)carbamoyl)pent-4-enoic acid]
> 320	C=C(C[C@H](N)C(=O)O)C(=O)Nc1ccc(F)cc1 [Compound 9, (S)-2-Amino-4-((4-fluorophenyl)carbamoyl) pent-4-enoic acid]

Same assay, conditions: Homo sapiens, MDA-MB-231, 72 h, read-out: Growth inhibition [log(IC50 [μM]) ± SEM] (converted)

SMILES	IC50 [µM]
C=C(C[C@H](N)C(=O)O)C(=O)NCc1ccccc1 [Compound 4, (S)-2-Amino-4-(benzylcarbamoyl)pent-4-enoic acid]	> 320
C=C(C[C@H](N)C(=O)O)C(=O)NCc1ccc(F)cc1 [Compound 5, (S)-2-Amino-4-((4-fluorobenzyl)carbamoyl)pent-4-enoic acid]	> 320
O=C(c1cc(Cc2n[nH]c(=O)c3ccccc23)ccc1F)N1CCN(C(=O)C2CC2)CC1 [Olaparib, reference compound]	155

Results, then the compound that gave them:

IC50 [µM]	SMILES
> 320	C=C(C[C@H](N)C(=O)O)C(=O)NCc1ccc([N+](=O)[O-])cc1 [Compound 6, (S)-2-Amino-4-((4-nitrobenzyl)carbamoyl)pent-4-enoic acid]
> 320	C=C(C[C@H](N)C(=O)O)C(=O)Nc1ccc(F)cc1 [Compound 9, (S)-2-Amino-4-((4-fluorophenyl)carbamoyl) pent-4-enoic acid]

System: not listed separately
Assay: in vitro
Settings: human, Cytotoxicity [log(EC50 [μM]) ± SEM], cellular necrosis, MDA-MB-231, 72 h exposure, 0.32–320 μM; values are logarithms

SMILES	EC50 [µM]
C=C(C[C@H](N)C(=O)O)C(=O)NCc1ccccc1 [Compound 4, (S)-2-Amino-4-(benzylcarbamoyl)pent-4-enoic acid]	> 316
C=C(C[C@H](N)C(=O)O)C(=O)NCc1ccc([N+](=O)[O-])cc1 [Compound 6, (S)-2-Amino-4-((4-nitrobenzyl)carbamoyl)pent-4-enoic acid]	269
C=C(C[C@H](N)C(=O)O)C(=O)NCc1ccc(F)cc1 [Compound 5, (S)-2-Amino-4-((4-fluorobenzyl)carbamoyl)pent-4-enoic acid]	263
O=C(c1cc(Cc2n[nH]c(=O)c3ccccc23)ccc1F)N1CCN(C(=O)C2CC2)CC1 [Olaparib, reference compound]	97.7
C=C(C[C@H](N)C(=O)O)C(=O)Nc1ccc(F)cc1 [Compound 9, (S)-2-Amino-4-((4-fluorophenyl)carbamoyl) pent-4-enoic acid]	> 316

System: SK-BR-3 (ER−/PR−/HER2+) breast cancer cells
Assay: cells
Format: cell-based
Settings: Homo sapiens, SK-BR-3, 24 h, read-out: Growth inhibition [log(IC50 [μM]) ± SEM] (converted)

SMILES	IC50 [µM]
C=C(C[C@H](N)C(=O)O)C(=O)NCc1ccccc1 [Compound 4, (S)-2-Amino-4-(benzylcarbamoyl)pent-4-enoic acid]	74.1
C=C(C[C@H](N)C(=O)O)C(=O)NCc1ccc(F)cc1 [Compound 5, (S)-2-Amino-4-((4-fluorobenzyl)carbamoyl)pent-4-enoic acid]	3.89
O=C(c1cc(Cc2n[nH]c(=O)c3ccccc23)ccc1F)N1CCN(C(=O)C2CC2)CC1 [Olaparib, reference compound]	1.62

Second part, the compound after the results:

IC50 [µM]	SMILES
12.9	C=C(C[C@H](N)C(=O)O)C(=O)NCc1ccc([N+](=O)[O-])cc1 [Compound 6, (S)-2-Amino-4-((4-nitrobenzyl)carbamoyl)pent-4-enoic acid]
11.5	C=C(C[C@H](N)C(=O)O)C(=O)Nc1ccc(F)cc1 [Compound 9, (S)-2-Amino-4-((4-fluorophenyl)carbamoyl) pent-4-enoic acid]

Same assay, conditions: Homo sapiens, SK-BR-3, 72 h, read-out: Growth inhibition [log(IC50 [μM]) ± SEM] (converted)

SMILES	IC50 [µM]
C=C(C[C@H](N)C(=O)O)C(=O)NCc1ccccc1 [Compound 4, (S)-2-Amino-4-(benzylcarbamoyl)pent-4-enoic acid]	0.562
C=C(C[C@H](N)C(=O)O)C(=O)NCc1ccc(F)cc1 [Compound 5, (S)-2-Amino-4-((4-fluorobenzyl)carbamoyl)pent-4-enoic acid]	4.47
O=C(c1cc(Cc2n[nH]c(=O)c3ccccc23)ccc1F)N1CCN(C(=O)C2CC2)CC1 [Olaparib, reference compound]	1.05

More lines, now with the values ahead:

IC50 [µM]	SMILES
3.16	C=C(C[C@H](N)C(=O)O)C(=O)NCc1ccc([N+](=O)[O-])cc1 [Compound 6, (S)-2-Amino-4-((4-nitrobenzyl)carbamoyl)pent-4-enoic acid]
4.79	C=C(C[C@H](N)C(=O)O)C(=O)Nc1ccc(F)cc1 [Compound 9, (S)-2-Amino-4-((4-fluorophenyl)carbamoyl) pent-4-enoic acid]
